These results are taken from patent publication US20020006915A1, “Use of COX-2 inhibitors to treat sepsis, complications thereof, and EP receptor modulation” (priority 2000, published 2002).

Each structure is given as a SMILES string. Marks after values point to notes of the source that are not given here.

For assay [1], the system named is plasma PGE2. In words: Plasma PGE2 of mice at 6 h after traumatic injury. The format is in vivo, BALB/c mice. Conditions: for PGE2 levels at 6 h: pooled serum n=6. How it is done:
Vehicle mice were injected with a 4% DMSO solution. To evaluate the efficacy of NS-398 on plasma PGE2 levels, mouse blood was collected at 6 hours after injury±treatment. […] At 6 hours after trauma, plasma PGE2 levels were increased from […] to 49,733 […]).

Assay [2] has as its system BALB/c mice given a septic challenge by cecal ligation and puncture. Briefly: Survival after septic challenge (cecal ligation and puncture) on day 7 after trauma, 3 doses of NS-398 within 24 h. It is filed as in vivo. The text has this:
A value of p<0.05 was considered significant. […] A value of p<0.05 was considered significant.

Assay [3] concerns plasma PGE2. Briefly: Plasma PGE2 levels at 1 and 7 days after trauma. The format is in vivo, BALB/c mice. How it is done:
Plasma PGE2 levels were determined in separate experiments by sacrificing mice at 1 day and at 7 days after treatment with NS-398. There was an increase in PGE2 levels at 1 and 7 days after traumatic injury compared with uninjured controls.

For assay [4], the system named is BALB/c mice subjected to cecal ligation and puncture. In words: Survival after cecal ligation and puncture 7 days after trauma, NS-398 twice a day over 7 days. The format is in vivo. The text has this:
All cytokine results are reported as mean±SEM of 8 mice per group. The ANOVA was used to determine the significance of the differences between means of traumatized±treatment versus control±treatment groups. A P value of <0.05 was considered significant. For survival studies, Kaplan-Meier (Log-rank) statistical analysis was used to compare all four groups studied. A P value of <0.05 was considered significant.
To evaluate the biological relevance of NS-398, mice were randomized into the four treatment groups. After 7 days, all mice were subjected to cecal ligation and puncture (CLP) and followed for survival over 10 days, when remaining mice were euthanized. […] Only 9% of control mice survived after 200 hours compared to a significant increase in survival of trauma+NS-398 treated mice in which 45% survived.
BALB/C mice (n=8/group) were given 10mg/kg NS398 intraperitoneally BID for 7 days, starting immediately after sham injury or trauma (femur fracture+40% hemorrhage). Four groups, sham+placebo (C); sham+NS398 (CN); trauma+placebo (T); or trauma+NS398 (TN) were studied. On day 7 after trauma, mice were sacrificed and splenic macrophages evaluated for PGE2, TNF-α and NO production (via Student's t-test). In a separate study, mice (n=10-11/group) were traumatized and given NS398 for 7 days. On day 7, cecal ligation and puncture was performed, and mice evaluated for survival over 3 weeks (via Log-rank test).

`CS(=O)(=O)Nc1ccc([N+](=O)[O-])cc1OC1CCCCC1` [NS-398, N-(2-cyclohexyloxy-4-nitrophenyl)methanesulfonamide]: the “PGE2 levels at 6 h” value with plasma PGE2 [1] (Control + NS-398, plasma) is 35,961 pg/ml; in the assay with plasma PGE2 [1] (Trauma + NS-398, plasma), 29,902 pg/ml. Further, in the assay with plasma PGE2 [1] (injured mice treated with NS-398 (TN), 6 hours after trauma), the plasma PGE2 levels was determined as 29900 pg/mL. Besides, the survival in assay [2] (T + NS, 3 i.p. injections of 10 mg/kg, CLP on day 7, n=10-12) is given as 92%#; in assay [2] (control mice treated with NS-398) it was 66%; in assay [2] (traumatized mice treated with NS-398), 92%; in assay [4] (C + NS398, 10 mg/kg i.p. BID for 7 days, CLP on day 7), 0%; in assay [4] (T + NS398, 10 mg/kg i.p. BID for 7 days, CLP on day 7), 45%*; in assay [4] (trauma+NS-398 treated mice, after 200 hours after CLP), 45%. The “Plasma PGE2 Day 1” value with plasma PGE2 [3] (Control + NS-398) is 24,652 pg/ml; with plasma PGE2 [3] (Trauma + NS-398) it was 26,370 pg/ml. Moreover, the “Plasma PGE2 Day 7” value in the assay with plasma PGE2 [3] (Control + NS-398) is 7,244 pg/ml; in the assay with plasma PGE2 [3] (Trauma + NS-398) it was 4,354 pg/ml. In addition, the “Plasma PGE2 levels (in words)” value with plasma PGE2 [3] (control and injured mice, 1 and 7 days) is “attenuated in both control and injured mice”. Besides, the “survival (in words)” value in assay [4] (control+NS-398 mice after CLP) was “died shortly after CLP”.
